From US7718641B2, “Pyrrolo [3,4-H] isoquinoline compounds and methods for modulating gated ion channels” (Aros Pharma ApS, priority 2005, dated 2010)

What was measured:
hASIC1a [1] = target: T1, hASIC1a (Homo sapiens, UniProt P78348); assay: Whole-cell voltage clamp of pH-evoked response of human ASIC1a stably transfected in CHO cells; format: cell-based; design: expressed in transfected cells; conditions: CHO cells
T1 sequence (P78348 1-528): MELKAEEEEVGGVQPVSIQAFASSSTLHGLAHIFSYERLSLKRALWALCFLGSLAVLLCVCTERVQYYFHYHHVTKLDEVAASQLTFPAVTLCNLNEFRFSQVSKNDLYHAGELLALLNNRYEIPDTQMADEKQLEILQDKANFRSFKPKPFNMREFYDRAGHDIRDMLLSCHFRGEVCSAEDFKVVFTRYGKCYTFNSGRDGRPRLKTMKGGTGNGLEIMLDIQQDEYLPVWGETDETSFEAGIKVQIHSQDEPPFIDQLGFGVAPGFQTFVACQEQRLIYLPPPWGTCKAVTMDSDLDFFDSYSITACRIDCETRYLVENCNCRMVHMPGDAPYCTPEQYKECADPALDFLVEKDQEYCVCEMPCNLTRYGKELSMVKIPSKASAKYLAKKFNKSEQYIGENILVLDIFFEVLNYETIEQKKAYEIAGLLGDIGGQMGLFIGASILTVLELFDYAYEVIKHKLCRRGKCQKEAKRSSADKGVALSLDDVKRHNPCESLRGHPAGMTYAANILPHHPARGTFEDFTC
Protocol: FIG. 3 illustrates the inhibitory effect of Compound A on acid-evoked activation of human ASIC1a stably transfected in CHO cells. […] In this example, the size of the pH-evoked response was determined by measuring the area under the curve of the response (total charge transfer) and normalized to the control response. FIG. 3B depicts an example of an hASIC1a current (whole cell voltage clamp, −60 mV) evoked by a pH 6.8-buffered solution (from pH 7.4) in the presence or absence of Compound A (3 μM).
These endogenous proton-activated inward currents were recorded in the presence and absence of Compound J (1 μM) or Compound K (1 μM) using the whole cell configuration of the patch clamp method (voltage clamp mode).
(§1) All experiments are performed at room temperature (20-25° C.) in voltage clamp using conventional whole cell patch clamp methods (Neher, E., et al. (1978) Pfluegers Arch 375:219-228).
Coverslips with the cells are transferred to a 15 μl experimental chamber mounted on the stage of an inverted microscope (IMT-2, Olympus) supplied with Nomarski optics. Cells are continuously superfused with extracellular saline at a rate of 2.5 ml/min. After giga-seal formation, the whole cell configuration is attained by suction. The cells are held at a holding voltage of −60 mV and at the start of each experiment the current is continuously measured for 45 s to ensure a stable baseline. Solutions of low pH (<7) are delivered to the chamber through a custom-made gravity-driven flowpipe, the tip of which is placed approximately 50 μm from the cell. Application is triggered when the tubing connected to the flowpipe is compressed by a valve controlled by the Pulse-software. Initially, low pH (in general, pH 6.5) is applied for 5 s every 60 s. The sample interval during application is 5501s. After stable responses are obtained, the extracellular saline as well as the low-pH solution are switched to solutions containing the compound to be tested. The compound is present until responses of a repeatable amplitude are achieved. Current amplitudes are measured at the peak of the responses, and effect of the compounds is calculated as the amplitude at compound equilibrium divided by the amplitude of the current evoked by the pulse just before the compound was included.
The following salt solutions are used: extracellular solution (mM): NaCl (140), KCl (4), CaCl2 (2), MgCl2 (4), HEPES (10, pH 7.4); intracellular solution (mM): KCl (120), KOH (31), MgCl2 (1.785), EGTA (10), HEPES (10, pH 7.2). In general, compounds for testing are dissolved in 50% DMSO at 500 fold the highest concentration used.
Similar findings are shown in FIG. 3 with the human ASIC1a stably transfected in CHO cells. FIG. 3A compares the dose-response relationship between Compound A and amiloride [determined by measuring the area under the curve of the response (total charge transfer) and normalized to the control response]. […] FIGS. 14A and 14B show similar results for Compounds J and K.

hASIC1a [2] = target: T1, hASIC1a; assay: Whole-cell patch clamp of HEK293 cells expressing homomeric hASIC1a; format: cell-based; design: expressed in transfected cells; host or cells: HEK293; conditions: 10 μM, HEK293, -60 mV, pH 7.4 to pH 6.5 for 5 sec, n=3
Protocol: HEK293 cells were transfected either with hASIC1a alone or co-transfected with hASIC1a and hASIC3. Acid-induced inward currents were recorded in the presence and absence of compound A (10 μM) using the whole-cell configuration of the patch-clamp method (voltage clamp mode).
as §1
Coverslips with the cells are transferred to a 15 μl experimental chamber mounted on the stage of an inverted microscope (IMT-2, Olympus) supplied with Nomarski optics. […] The cells are held at a holding voltage of −60 mV and at the start of each experiment the current is continuously measured for 45 s to ensure a stable baseline. […] Current amplitudes are measured at the peak of the responses, and effect of the compounds is calculated as the amplitude at compound equilibrium divided by the amplitude of the current evoked by the pulse just before the compound was included. […]
FIGS. 4A and 4B show response to acidic saline in the absence or presence of 10 μM of Compound A recorded from HEK293 cells expressing either hASIC1a alone or HEK293 cells co-expressing hASIC1a and hASIC3 [voltage clamped at −60 mV, extracellular solution surrounding cells was changed rapidly from pH 7.4 to pH 6.5 for 5 sec] […]

[3] = test system: CFA-induced thermal hyperalgesia; assay: CFA model, thermal hyperalgesia (Hargreaves plantar test); format: in vivo, rat; conditions: CFA 48 h prior
Protocol: Assessment of thermal hyperalgesia: Baseline and post-treatment withdrawal latencies to a noxious thermal stimulus were measured according to Hargreaves (Hargreaves et al., 1988) using a plantar test analgesia meter (IITC, Woodland Hills, Calif., model # 336). The stimulus intensity was set at 30% of maximum output and the cut-off time was set at 30 seconds. Rats were placed on a glass plate warmed to 28° C. and allowed to habituate to the testing chambers for a minimum of 15 minutes prior to each testing session. The thermal stimulus was applied to the plantar surface of the paw, and the mean latency of three readings on each paw was used as the latency value for each time point. Thermal thresholds were defined as the latency in seconds to the first pain behavior, which includes nocifensive paw withdrawal, flinching, biting and/or licking of the stimulated paw. The mean and standard error of the mean (SEM) were determined for the injured and normal paws for each treatment group.
For comparison, results with morphine (6 mg/kg sc) and indomethacin (30 mg/kg po) are shown. […] Data are expressed as mean±SEM, (n=10). **P<0.01, vs. baseline.

- potency relative to amiloride (hASIC1a [1]; human ASIC1a pH-evoked response): about 100 fold
- effect on acid-induced inward current, hASIC1a alone (hASIC1a [2]): effectively modulates the activity
Compound: COc1ccc(F)cc1-c1cc2c(c3c1CCN(C)C3)NC(=O)/C2=N/O [Compound A, 5-(5-fluoro-2-methoxyphenyl)-6,7,8,9-tetrahydro-3-(hydroxyimino)-8-methyl-1H-pyrrolo[3,2-h]isoquinoline-2(3H)-one]
- effect on size of human ASIC1a pH-evoked response (area under the curve, total charge transfer, normalized to control) (hASIC1a [1]; -60 mV, pH 6.8 from pH 7.4): reduce the human ASIC1a pH-evoked response in a dose-dependent manner
- reversal of CFA-induced thermal hyperalgesia ([3]; 3 h after i.p. administration, dose-dependent): fully reversing the thermal hyperalgesia
- ED50 ([3]; Rattus norvegicus, ip, measured 3 h after i.p. administration, n=10, read-out: ED50, reversal of CFA-induced thermal hyperalgesia): 6.5 mg/kg
